Experimental data: paper PMC6748410, “A phase 2 study of an oral mTORC1/mTORC2 kinase inhibitor (CC-223) for non-pancreatic neuroendocrine tumors with or without carcinoid symptoms” (PLoS ONE, 2019)

Key:
[1] = tested on: human carcinoid xenografts that secrete serotonin; set-up: method as in PMID 28864682; settings: mice bearing human carcinoid xenografts; cited from earlier work
[2] = Treatment-related adverse events and tolerability (CTCAE v4.0) in patients with NET; assay type: in vivo
Experimental: CC-223 capsules were taken orally once daily in continuous 28-day cycles. An initial cohort started CC-223 at a dose of 45 mg; this was the maximum tolerated dose (MTD) established in phase 1 but, after observing a high rate of dose adjustments due to toxicity among patients with NET, a second cohort started CC-223 at 30 mg. To mitigate toxicity, dosage could be adjusted with either short interruptions, dose level reductions, or every-other-day administration. Treatment was permanently discontinued for disease progression, unmanageable toxicity, patient withdrawal of consent, or other reasons specified by the protocol as requiring study withdrawal.
Baseline assessments were completed within 28 days prior to first dose of CC-223. Drug tolerability was continuously evaluated until 28 days after the last dose, using clinical event and laboratory test monitoring comprising a conventional hematologic and coagulation (if taking anti-coagulants) panel; serum electrolytes; fasting blood glucose (this also included daily self-monitoring with finger stick samples for the first month and for longer if necessary), HbA1c, insulin, and c-peptide; liver enzymes; serum creatinine; and protein. Others included serum uric acid, amylase and lipase, lipoproteins, thyroid function tests, creatine kinase, and immunoglobulins including T-cell subsets (CD4+ and CD8+). We also performed serial triplicate electrocardiograms (ECGs), periodic left ventricular ejection fraction estimations (echo or multiple gated acquisition [MUGA]), regular physical exams and vital sign measurements (heart rate, blood pressure, respiratory rate, and temperature). Adverse events were coded with Medical Dictionary for Regulatory Activities (MedDRA) version 19.0. Severity of adverse events was classified using the National Cancer Institute Common Terminology Criteria for Adverse Events (CTCAE) version 4.0. A safety review committee provided study oversight.

[3] = 30 mg starting dose (n = 23), any grade
[4] = 45 mg starting dose (n = 24), any grade

In the case of `CO[C@H]1CC[C@H](N2C(=O)CNc3ncc(-c4ccc(C(C)(C)O)nc4)nc32)CC1` [CC-223], the “Volume of tumors that progressed on rapamycin, after treatment” value [1] is listed as “remained stable or decreased in volume from baseline”, the “Patients requiring 1 dose reduction” value ([2]; 30 mg group (n = 23)) is listed as 11 patients and the “Patients requiring 2 dose reductions” value ([2]; 30 mg group (n = 23)) is listed as 7 patients. For the same compound, the “Patients requiring more than 2 dose reductions” value ([2]; 30 mg group (n = 23)) was 0 patients, the “Treatment-related adverse event: AST increased” value [2, 3] was 3 (13.0) n (%) and the “Treatment-related adverse event: Abdominal pain” value [2, 3] was 2 (8.7) n (%). For the same compound, the “Treatment-related adverse event: Asthenia” value [2, 3] was 7 (30.4) n (%), the “Treatment-related adverse event: Blood creatinine increased” value [2, 3] was 4 (17.4) n (%) and the “Treatment-related adverse event: Decreased appetite” value [2, 3] was 4 (17.4) n (%). The “Treatment-related adverse event: Dehydration” value [2, 3] was 4 (17.4) n (%), the “Treatment-related adverse event: Diarrhea” value [2, 3] was 17 (73.9) n (%) and the “Treatment-related adverse event: Dry mouth” value [2, 3] was 2 (8.7) n (%). The “Treatment-related adverse event: Dysgeusia” value [2, 3] was 3 (13.0) n (%), the “Treatment-related adverse event: Fatigue” value [2, 3] was 17 (73.9) n (%) and the “Treatment-related adverse event: Hyperglycemia” value [2, 3] was 5 (21.7) n (%). For the same compound, the “Treatment-related adverse event: Maculopapular rash” value [2, 3] was 3 (13.0) n (%), the “Treatment-related adverse event: Malaise” value [2, 3] was 3 (13.0) n (%) and the “Treatment-related adverse event: Mucosal inflammation” value [2, 3] was 3 (13.0) n (%). The “Treatment-related adverse event: Nausea” value [2, 3] was 6 (26.1) n (%), the “Treatment-related adverse event: Pruritus” value [2, 3] was 7 (30.4) n (%) and the “Treatment-related adverse event: Rash” value [2, 3] was 6 (26.1) n (%). The “Treatment-related adverse event: Rash macular” value [2, 3] was 2 (8.7) n (%), the “Treatment-related adverse event: Stomatitis” value [2, 3] was 11 (47.8) n (%) and the “Treatment-related adverse event: Vomiting” value [2, 3] was 2 (8.7) n (%). For the same compound, the “Patients requiring 1 dose reduction” value ([2]; 45 mg group (n = 24)) was 3 patients, the “Patients requiring more than 2 dose reductions” value ([2]; 45 mg group (n = 24)) was 2 patients and the “Tolerability in the NET cohort” value ([2]; 45 mg once daily) was “not well-tolerated”. For the same compound, the “Treatment-related adverse event: AST increased” value [2, 4] was 2 (8.3) n (%), the “Treatment-related adverse event: Abdominal pain” value [2, 4] was 3 (12.5) n (%) and the “Treatment-related adverse event: Asthenia” value [2, 4] was 4 (16.7) n (%). The “Treatment-related adverse event: Blood creatinine increased” value [2, 4] was 3 (12.5) n (%), the “Treatment-related adverse event: Decreased appetite” value [2, 4] was 8 (33.3) n (%) and the “Treatment-related adverse event: Dehydration” value [2, 4] was 4 (16.7) n (%). The “Treatment-related adverse event: Diarrhea” value [2, 4] was 19 (79.2) n (%), the “Treatment-related adverse event: Dry mouth” value [2, 4] was 5 (20.8) n (%) and the “Treatment-related adverse event: Dysgeusia” value [2, 4] was 5 (20.8) n (%). For the same compound, the “Treatment-related adverse event: Fatigue” value [2, 4] was 14 (58.3) n (%), the “Treatment-related adverse event: Hyperglycemia” value [2, 4] was 8 (33.3) n (%) and the “Treatment-related adverse event: Maculopapular rash” value [2, 4] was 9 (37.5) n (%). For the same compound, the “Treatment-related adverse event: Malaise” value [2, 4] was 4 (16.7) n (%), the “Treatment-related adverse event: Mucosal inflammation” value [2, 4] was 3 (12.5) n (%) and the “Treatment-related adverse event: Nausea” value [2, 4] was 12 (50.0) n (%). The “Treatment-related adverse event: Pruritus” value [2, 4] was 12 (50.0) n (%), the “Treatment-related adverse event: Rash” value [2, 4] was 12 (50.0) n (%) and the “Treatment-related adverse event: Rash macular” value [2, 4] was 4 (16.7) n (%). The “Treatment-related adverse event: Stomatitis” value [2, 4] was 14 (58.3) n (%), the “Treatment-related adverse event: Vomiting” value [2, 4] was 5 (20.8) n (%) and the “Patients with one or more serious adverse event related to CC-223” value ([2]; 8 of 47 patients) was 17%. The “Patients who remained on the dose initially assigned” value ([2]; 12 of 47 patients) was 26%, the “Treatment-related adverse event: AST increased” value ([2]; Any dose (N = 47), Grade 3) was 2 (4.3) n (%) and the “Treatment-related adverse event: Abdominal pain” value ([2]; Any dose (N = 47), Grade 3) was 1 (2.1) n (%). The “Treatment-related adverse event: Asthenia” value ([2]; Any dose (N = 47), Grade 3) was 3 (6.4) n (%), the “Treatment-related adverse event: Blood creatinine increased” value ([2]; Any dose (N = 47), Grade 3) was 1 (2.1) n (%) and the “Treatment-related adverse event: Decreased appetite” value ([2]; Any dose (N = 47), Grade 3) was 1 (2.1) n (%). For the same compound, the “Treatment-related adverse event: Dehydration” value ([2]; Any dose (N = 47), Grade 3) was 1 (2.1) n (%), the “Treatment-related adverse event: Diarrhea” value ([2]; Any dose (N = 47), Grade 3) was 18 (38.3) n (%) and the “Treatment-related adverse event: Dry mouth” value ([2]; Any dose (N = 47), Grade 3) was 0 n (%). The “Treatment-related adverse event: Dysgeusia” value ([2]; Any dose (N = 47), Grade 3) was 0 n (%), the “Treatment-related adverse event: Fatigue” value ([2]; Any dose (N = 47), Grade 3) was 10 (21.3) n (%) and the “Treatment-related adverse event: Hyperglycemia” value ([2]; Any dose (N = 47), Grade 3) was 0 n (%). For the same compound, the “Treatment-related adverse event: Maculopapular rash” value ([2]; Any dose (N = 47), Grade 3) was 3 (6.4) n (%), the “Treatment-related adverse event: Malaise” value ([2]; Any dose (N = 47), Grade 3) was 0 n (%) and the “Treatment-related adverse event: Mucosal inflammation” value ([2]; Any dose (N = 47), Grade 3) was 0 n (%). The “Treatment-related adverse event: Nausea” value ([2]; Any dose (N = 47), Grade 3) was 1 (2.1) n (%), the “Treatment-related adverse event: Pruritus” value ([2]; Any dose (N = 47), Grade 3) was 2 (4.3) n (%) and the “Treatment-related adverse event: Rash” value ([2]; Any dose (N = 47), Grade 3) was 1 (2.1) n (%). The “Treatment-related adverse event: Rash macular” value ([2]; Any dose (N = 47), Grade 3) was 1 (2.1) n (%), the “Treatment-related adverse event: Stomatitis” value ([2]; Any dose (N = 47), Grade 3) was 5 (10.6) n (%) and the “Treatment-related adverse event: Vomiting” value ([2]; Any dose (N = 47), Grade 3) was 2 (4.3) n (%). For the same compound, the “Treatment-related adverse event: AST increased” value ([2]; Any dose (N = 47), any grade) was 5 (10.6) n (%), the “Treatment-related adverse event: Abdominal pain” value ([2]; Any dose (N = 47), any grade) was 5 (10.6) n (%) and the “Treatment-related adverse event: Asthenia” value ([2]; Any dose (N = 47), any grade) was 11 (23.4) n (%). The “Treatment-related adverse event: Blood creatinine increased” value ([2]; Any dose (N = 47), any grade) was 7 (14.9) n (%), the “Treatment-related adverse event: Decreased appetite” value ([2]; Any dose (N = 47), any grade) was 12 (25.5) n (%) and the “Treatment-related adverse event: Dehydration” value ([2]; Any dose (N = 47), any grade) was 8 (17.0) n (%). The “Treatment-related adverse event: Diarrhea” value ([2]; Any dose (N = 47), any grade) was 36 (76.6) n (%), the “Treatment-related adverse event: Dry mouth” value ([2]; Any dose (N = 47), any grade) was 7 (14.9) n (%) and the “Treatment-related adverse event: Dysgeusia” value ([2]; Any dose (N = 47), any grade) was 8 (17.0) n (%). For the same compound, the “Treatment-related adverse event: Fatigue” value ([2]; Any dose (N = 47), any grade) was 31 (66.0) n (%), the “Treatment-related adverse event: Hyperglycemia” value ([2]; Any dose (N = 47), any grade) was 13 (27.7) n (%) and the “Treatment-related adverse event: Maculopapular rash” value ([2]; Any dose (N = 47), any grade) was 12 (25.5) n (%). The “Treatment-related adverse event: Malaise” value ([2]; Any dose (N = 47), any grade) was 7 (14.9) n (%), the “Treatment-related adverse event: Mucosal inflammation” value ([2]; Any dose (N = 47), any grade) was 6 (12.8) n (%) and the “Treatment-related adverse event: Nausea” value ([2]; Any dose (N = 47), any grade) was 18 (38.3) n (%). The “Treatment-related adverse event: Pruritus” value ([2]; Any dose (N = 47), any grade) was 19 (40.4) n (%), the “Treatment-related adverse event: Rash” value ([2]; Any dose (N = 47), any grade) was 18 (38.3) n (%) and the “Treatment-related adverse event: Rash macular” value ([2]; Any dose (N = 47), any grade) was 6 (12.8) n (%). The “Treatment-related adverse event: Stomatitis” value ([2]; Any dose (N = 47), any grade) was 25 (53.2) n (%), the “Treatment-related adverse event: Vomiting” value ([2]; Any dose (N = 47), any grade) was 7 (14.9) n (%) and the “Most common TRAEs: asthenia” value ([2]; any grade, n = 47) was 23%. For the same compound, the “Most common TRAEs: decreased appetite” value ([2]; any grade, n = 47) was 26%, the “Most common TRAEs: diarrhea” value ([2]; any grade, n = 47) was 77% and the “Most common TRAEs: fatigue” value ([2]; any grade, n = 47) was 66%. For the same compound, the “Most common TRAEs: hyperglycemia” value ([2]; any grade, n = 47) was 28%, the “Most common TRAEs: maculopapular rash” value ([2]; any grade, n = 47) was 26% and the “Most common TRAEs: nausea” value ([2]; any grade, n = 47) was 38%. The “Most common TRAEs: pruritus” value ([2]; any grade, n = 47) was 40%, the “Most common TRAEs: rash” value ([2]; any grade, n = 47) was 38% and the “Most common TRAEs: stomatitis” value ([2]; any grade, n = 47) was 53%. For the same compound, the “Patients who reported at least one treatment-related adverse event (TRAE)” value ([2]; by investigator determination, n = 47) was 98%, the “Patients with doses reduced for extended periods to levels as low as 15 mg” value ([2]; human, in vivo) was 45% and the “Deaths on study due to treatment-related toxicity” value ([2]; n = 47) was “No patient died”. The “Grade 3 or higher toxicity: diarrhea” value ([2]; n = 47) was 38%, the “Grade 3 or higher toxicity: fatigue” value ([2]; n = 47) was 21% and the “Grade 3 or higher toxicity: stomatitis” value ([2]; n = 47) was 11%. The “Grade 4 or 5 toxicities among the most common adverse events” value ([2]; n = 47) was “no grade 4 or 5 toxicities reported”, the “Patients who discontinued CC-223 because of toxicity” value ([2]; n = 47) was 13% and the “Patients who experienced grade 3 or 4 treatment-related events” value ([2]; n = 47) was 79%. For the same compound, the “Patients who required dose adjustments due to toxicity” value ([2]; n = 47) was 85%, the “Toxicity causing discontinuation: decreased appetite” value ([2]; n = 47) was 6% and the “Toxicity causing discontinuation: diarrhea” value ([2]; n = 47) was 9%. For the same compound, the “Toxicity causing discontinuation: nausea” value ([2]; n = 47) was 4%, the “Toxicity requiring dose adjustments: diarrhea” value ([2]; n = 47) was 40% and the “Toxicity requiring dose adjustments: fatigue” value ([2]; n = 47) was 17%. The “Toxicity requiring dose adjustments: increased blood creatinine” value ([2]; n = 47) was 13%, the “Toxicity requiring dose adjustments: stomatitis” value ([2]; n = 47) was 17% and the “Patients requiring 2 dose reductions” value ([2]; overall, n = 47) was 19 patients. For the same compound, the “Patients requiring more than 2 dose reductions” value ([2]; overall, n = 47) was 4 patients and the “Mean time to first dose reduction” value ([2]; overall, range 8–589 days) was 46 days.
